{
  "source": "patent US7612061B2",
  "about": "“Piperazine compounds” (Les Laboratoires Servier, priority 2005, dated 2009)",
  "note": "Counter-ions that a name gives are not always drawn.",
  "data": [
    {"target": "T1, serotonin (5-HTT) reuptake site (Rattus norvegicus, UniProt P31652)", "T1 construct": "on rat frontal cortex membranes; from tissue; host or cells: rat frontal cortex membranes", "T1 sequence (P31652 whole entry)": "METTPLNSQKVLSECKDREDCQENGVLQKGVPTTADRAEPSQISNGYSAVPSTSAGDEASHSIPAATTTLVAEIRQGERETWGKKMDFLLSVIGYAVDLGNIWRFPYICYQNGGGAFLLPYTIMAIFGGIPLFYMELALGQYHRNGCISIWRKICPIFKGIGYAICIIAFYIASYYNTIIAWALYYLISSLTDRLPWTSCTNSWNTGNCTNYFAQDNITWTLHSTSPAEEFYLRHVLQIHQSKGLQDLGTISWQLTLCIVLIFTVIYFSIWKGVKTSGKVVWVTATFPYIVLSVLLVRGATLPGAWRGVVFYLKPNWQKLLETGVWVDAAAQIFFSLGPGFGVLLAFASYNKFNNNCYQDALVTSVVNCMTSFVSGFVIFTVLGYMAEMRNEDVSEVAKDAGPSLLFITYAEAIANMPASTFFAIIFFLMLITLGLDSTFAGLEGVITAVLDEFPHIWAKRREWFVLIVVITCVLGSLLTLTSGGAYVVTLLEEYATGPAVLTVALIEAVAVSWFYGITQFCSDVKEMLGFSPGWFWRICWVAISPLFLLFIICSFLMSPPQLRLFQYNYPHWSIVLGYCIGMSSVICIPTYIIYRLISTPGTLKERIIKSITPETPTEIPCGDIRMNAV", "assay": "Affinity for serotonin reuptake sites in the rat ([3H]-citalopram competition)", "assay_type": "binding", "settings": "rat frontal cortex membranes, 0.7 nM [3H]-citalopram, 2 hours at 25° C.; pKi=-log Ki (Cheng-Prusoff); read-out: pKi r5-HTT (converted)", "protocol": "The affinity of the compounds for the serotonin (5-HTT) reuptake site is evaluated by competition experiments with [^3H]-citalopram on rat frontal cortex membranes. The cortices are homogenised using a Polytron in 40 volumes (weight/volume) of cold Tris-HCl (50 mM, pH 7.4) incubation buffer containing 120 mM NaCl and 5 mM KCl and are then centrifuged for a first time. The sediment is resuspended in the same buffer, incubated for 10 minutes at 37° C. and then re-centrifuged. The membranes are washed a further two times and the sediment is then resuspended in an appropriate volume of incubation buffer. The membranes are then incubated for 2 hours at 25° C. with the compound under test in the presence of 0.7 nM [^3H]-citalopram. Non-specific binding is determined with 10 μM fluoxetine. At the end of the incubation period, the samples are filtered through Unifilter GF/B type filters pretreated with PEI (0.5%) and washed several times with the incubation buffer. The radioactivity retained on the filters is counted after addition of scintillation liquid, with the aid of a scintillation counter. The isotherms obtained are analysed by non-linear regression to determine the IC50 values, which are converted into Ki using the Cheng-Prusoff equation: Ki=IC50/(1+L/kD) wherein L represents the concentration of radioligand and kD is the dissociation constant of [^3H]-citalopram on the serotonin reuptake site (0.7 nM). The results are expressed as pKi=−log Ki.", "units": {"Ki": "nM"}, "values": [
      {"smiles": "COc1ccc2c(c1)[C@@H](N1CCNCC1)[C@H](OCc1cc(Cl)cc(Cl)c1)C2", "note": "(relative stereo) [Example 42, trans-1-{2-[(3,5-Dichlorobenzyl)oxy]-6-methoxy-2,3-dihydro-1H-inden-1-yl}piperazine dihydrochloride]", "Ki": 19.5},
      {"smiles": "Cc1cc(C)cc(CO[C@@H]2Cc3ccccc3[C@@H]2N2CCNCC2)c1", "note": "[Example 38, 1-[(1S,2R)-2-[(3,5-Dimethylbenzyl)oxy]-2,3-dihydro-1H-inden-1-yl]-piperazine dihydrochloride]", "Ki": 1.86},
      {"smiles": "Brc1cc(Br)cc(CO[C@@H]2COc3ccccc3[C@H]2N2CCNCC2)c1", "note": "(racemic) [Example 4, trans-1-{3-[(3,5-Dibromobenzyl)oxy]-3,4-dihydro-2H-chromen-4-yl}piperazine dihydrochloride]", "Ki": 79.4},
      {"smiles": "Fc1cc(F)cc(CO[C@@H]2Cc3ccccc3[C@@H]2N2CCNCC2)c1", "note": "[Example 36, 1-[(1S,2R)-2-[(3,5-Difluorobenzyl)oxy]-2,3-dihydro-1H-inden-1-yl]-piperazine dihydrochloride]", "Ki": 1.07},
      {"smiles": "Fc1cc(Cl)cc(CO[C@@H]2COc3ccccc3[C@H]2N2CCNCC2)c1", "note": "(relative stereo) [Example 47, trans-1-{3-(3-Chloro-5-fluorobenzyloxy)-3,4-dihydro-2H-chromen-4-yl}piperazine dihydrochloride]", "Ki": 35.5},
      {"smiles": "Clc1cc(Cl)cc(CO[C@@H]2COc3ccccc3[C@H]2N2CCNCC2)c1", "note": "(relative stereo) [Example 44, trans-1-{3-[(3,5-Dichlorobenzyl)oxy]-3,4-dihydro-2H-chromen-4-yl}-piperazine dihydrochloride]", "Ki": 49},
      {"smiles": "Brc1cc(Br)cc(CO[C@@H]2Cc3ccccc3[C@H]2N2CCNCC2)c1", "note": "(racemic) [Example 1, trans-1-{2-[(3,5-Dibromobenzyl)oxy]-2,3-dihydro-1H-inden-1-yl}-piperazine dihydrochloride]", "Ki": 4.47},
      {"smiles": "Brc1cc(Br)cc(CO[C@@H]2Cc3ccccc3[C@@H]2N2CCNCC2)c1", "note": "[Example 21, 1-{(1S,2R)-2-[(3,5-Dibromobenzyl)oxy]-2,3-dihydro-1H-inden-1-yl}-piperazine dihydrochloride]", "Ki": 12.3}
    ]},
    {"target": "T2, human NK1 receptors (Homo sapiens, UniProt P25103)", "T2 construct": "IM9 human lymphoblast cells endogenously expressing NK1 receptors; endogenous in cells; host or cells: IM9 human lymphoblast cells (whole-cell preparation)", "T2 sequence (P25103 whole entry)": "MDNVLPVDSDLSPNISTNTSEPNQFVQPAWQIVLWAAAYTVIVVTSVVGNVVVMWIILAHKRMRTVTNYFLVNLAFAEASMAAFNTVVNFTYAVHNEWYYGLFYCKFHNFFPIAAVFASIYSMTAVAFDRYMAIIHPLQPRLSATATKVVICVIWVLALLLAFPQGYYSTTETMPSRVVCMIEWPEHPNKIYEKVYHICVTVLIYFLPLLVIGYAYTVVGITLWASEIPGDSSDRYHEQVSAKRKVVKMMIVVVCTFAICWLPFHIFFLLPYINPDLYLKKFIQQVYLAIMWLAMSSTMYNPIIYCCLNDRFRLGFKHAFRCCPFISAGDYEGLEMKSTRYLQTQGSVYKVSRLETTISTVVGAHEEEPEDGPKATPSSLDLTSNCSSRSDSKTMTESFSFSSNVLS", "assay": "hNK1 binding ([3H]-Substance P competition on IM9 human lymphoblast cells)", "settings": "IM9 human lymphoblast cells endogenously expressing NK1 receptors, 1.5 nM [3H]-Substance P, 90 minutes at ambient temperature; pKi=-log Ki (Cheng-Prusoff)", "protocol": "The affinity of compounds of the invention was determined by competition experiments in the presence of [^3H]-Substance P (Sar-9, MetO2-11,2-propyl-3,4-3H). IM9 human lymphoblast cells endogenously expressing NK1 receptors are centrifuged and taken up in the incubation buffer containing 50 mM TRIS, 150 mM NaCl, 4 mM CaCl2, protease inhibitors at 1/100^e (Cocktail SIGMA P8340) and 0.2% BSA. The volume of incubation buffer is determined so as to obtain a concentration of 5×10^6 cells/ml. The cell preparation is then incubated together with 1.5 nM [^3H]-Substance P and the compound under test for 90 minutes at ambient temperature. Non-specific binding is determined in the presence of 1 μM GR 205171.\nAt the end of the incubation period, the samples are filtered through Unifilter GF/B type filters pretreated with PEI (0.1%) and washed several times with the filtration buffer (50 mM TRIS, 150 mM NaCl, 4 mM CaCl2). The radioactivity retained on the filters is measured by counting after addition of scintillation liquid to the filters. The counts are analysed by non-linear regression, allowing the isotherms to be plotted and the IC50 values to be determined. The latter are then converted into inhibition constants (Ki) by means of the Cheng-Prusoff equation: Ki=IC50/(1+L/KD) wherein L is the concentration of [^3H]-Substance P and KD is the dissociation constant of [^3H]-Substance P for human NK1 receptors (0.53 nM). The results are expressed as pKi(−log Ki).", "units": {"Ki": "nM"}, "values": [
      {"smiles": "Brc1cc(Br)cc(CO[C@@H]2CCCc3ccccc3[C@H]2N2CCNCC2)c1", "note": "(relative stereo) [Example 7, trans-1-{6-[(3,5-Dibromobenzyl)oxy]-6,7,8,9-tetrahydro-5H-benzo-[7]annulen-5-yl}piperazine dihydrochloride]", "Ki": 7.24},
      {"smiles": "COc1ccc2c(c1)CC[C@@H](OCc1cc(Br)cc(Br)c1)[C@@H]2N1CCNCC1", "note": "(relative stereo) [Example 13, trans-1-{2-[(3,5-Dibromobenzyl)oxy]-6-methoxy-1,2,3,4-tetrahydro-naphth-1-yl}piperazine dihydrochloride]", "Ki": 251},
      {"smiles": "Brc1cc(Br)cc(CO[C@@H]2CCOc3ccccc3[C@H]2N2CCNCC2)c1", "note": "(relative stereo) [Example 8, trans-1-{4-[(3,5-Dibromobenzyl)oxy]-2,3,4,5-tetrahydro-1-benzoxepin-5-yl}piperazine dihydrochloride]", "Ki": 28.8},
      {"smiles": "NC1CCN([C@@H]2c3ccccc3OC[C@H]2OCc2cc(Br)cc(Br)c2)CC1", "note": "(relative stereo) [Example 9, trans-1-{3-[(3,5-Dibromobenzyl)oxy]-3,4-dihydro-2H-chromen-4-yl}piperidin-4-amine dihydrochloride]", "Ki": 11},
      {"smiles": "Brc1cc(Br)cc(CO[C@@H]2COc3ccccc3[C@H]2N2CCNCC2)c1", "note": "(racemic) [Example 4, trans-1-{3-[(3,5-Dibromobenzyl)oxy]-3,4-dihydro-2H-chromen-4-yl}piperazine dihydrochloride]", "Ki": 5.62},
      {"smiles": "Brc1cc(Br)cc(CO[C@@H]2CCc3ccccc3[C@H]2N2CCNCC2)c1", "note": "(racemic) [Example 15, trans-1-{2-[(3,5-Dibromobenzyl)oxy]-1,2,3,4-tetrahydronaphth-1-yl}piperazine dihydrochloride]", "Ki": 33.1},
      {"smiles": "Brc1cc(Br)cc(COC2CCc3ccccc3C2N2CCCNCC2)c1", "note": "(single isomer, unassigned; (-)) [Example 19, (−) isomer of trans-1-{2-[(3,5-dibromobenzyl)oxy]-1,2,3,4-tetra-hydronaphth-1-yl}-1,4-diazepane dihydrochloride]", "Ki": 39.8},
      {"smiles": "Brc1cc(Br)cc(CO[C@@H]2Cc3ccccc3[C@H]2N2CCNCC2)c1", "note": "(racemic) [Example 1, trans-1-{2-[(3,5-Dibromobenzyl)oxy]-2,3-dihydro-1H-inden-1-yl}-piperazine dihydrochloride]", "Ki": 145},
      {"smiles": "FC(F)(F)c1cc(CO[C@@H]2Cc3ccccc3[C@H]2N2CCNCC2)cc(C(F)(F)F)c1", "note": "(relative stereo) [Example 40, trans-1-(2-{[3,5-Bis(trifluoromethyl)benzyl]oxy}-2,3-dihydro-1H-inden-1-yl)piperazine dihydrochloride]", "Ki": 141}
    ]}
  ]
}
